A short description of this data set: Evaluation of solubility at 25° C. in organic solvent. In kind it is physicochemical. The method, then:
A solubility of 2-methacryloyloxyacetoxy-4,5-oxathiatricyclo[4.2.1.0^3,7]nonane-5,5-dioxide obtained in Example 2 in tetrahydrofuran was measured according to the following operation.
1 g of a sample to be used for the evaluation of solubility was prepared. 1 g of an organic solvent described in Table 1 and the foregoing sample were mixed at 25° C., and the mixture was stirred at 25° C. for 10 minutes as it was. An insoluble matter was filtered out from the obtained mixed solution, and the organic solvent was distilled off from the filtrate. Subsequently, the residue was dried under reduced pressure for 5 hours, thereby obtaining the sample in the saturated solution. A mass of the subject sample was measured, and its solubility was calculated according to the following expression. Solubility(% by mass)=100×(Mass of the sample in the saturated solution)/(Mass of the saturated solution)
The experiment and evaluation of solubility were carried out in the same manner as in Example 7, except that in Example 7, the sample and the organic solvent were changed to those shown in Table 1 or Table 2.

[1] abbreviates: organic solvent: Methyl ethyl ketone.
Where [2] appears, read: organic solvent: Tetrahydrofuran.

`C=C(C)C(=O)OCC(=O)OC1C2CC3C(=O)OC1C3O2` (stereo not drawn) [reference compound]: the Solubility reads like this: under setting [1], 4.2 % by mass; under setting [2], 7.8 % by mass.
For `C=C(C)C(=O)OCC(=O)OC1C2CC3C1OS(=O)(=O)C3C2` (stereo not drawn) [Example 2, 2-methacryloyloxyacetoxy-4,5-oxathiatricyclo[4.2.1.0^3,7]nonane-5,5-dioxide], the Solubility reads like this: under setting [1], 45.5 % by mass; under setting [2], 48.1 % by mass.
On to `C=C(C)C(=O)OCC(=O)OC1C2CC3C(O2)C1OS3(=O)=O` (stereo not drawn) [Example 4, 5-methacryloyloxyacetoxy-3,7-dioxa-2-thiatricyclo[4.2.1.0^4,8]nonane-2,2-dioxide], for which the Solubility by setting is: under setting [1], 30.8 % by mass; under setting [2], 31.9 % by mass.
